Source: patent publication US3966719A, “4-(Tetrazol-5-yl)-Δ^3 -cephem compounds” (Pfizer Inc., priority 1974, dated 1976)
Converted amounts (≈) assume the structure as drawn.

System: Streptomyces pyogenes
Test: antimicrobial test in nutrient broth, minimum concentration (MIC) at which growth failed to occur
Type: cell-based
Settings: standardized conditions, read-out: In vitro MIC

| SMILES | MIC |
| --- | --- |
| CC1=C(c2nn[nH]n2)N2C(=O)C(NC(=O)Cn3cnnn3)C2SC1 (centres unmarked) | 6.2 µg/mL (≈ 17.8 µM) |
| Cn1nnnc1SCC1=C(c2nn[nH]n2)N2C(=O)C(NC(=O)Cc3cccs3)C2SC1 (centres unmarked) | 0.1 µg/mL (≈ 0.21 µM) |
| Cn1nnnc1SCC1=C(c2nn[nH]n2)N2C(=O)C(NC(=O)[C@H](O)c3ccccc3)C2SC1 (stereo partly drawn) [7-D-(α-Hydroxy-α-phenylacetamido)-3-(1-methyltetrazol-5-ylthiomethyl)-4-(tetrazol-5-yl)-Δ^3-cephem] | 3.12 µg/mL (≈ 6.41 µM) |
| CC1=C(c2nn[nH]n2)N2C(=O)C(NC(=O)Cc3ccccc3)C2SC1 (centres unmarked) [C6H5CH2--, A = H, 7-Phenylacetamido-3-methyl-4-(tetrazol-5-yl)-Δ^3-cephem] | 0.78 µg/mL (≈ 2.19 µM) |
| CC1=C(c2nn[nH]n2)N2C(=O)C(NC(=O)C(N=[N+]=[N-])c3ccccc3)C2SC1 (centres unmarked) [C6H5CH(N3)--, A = H] | 1.5 µg/mL (≈ 3.77 µM) |
| CC1=C(c2nn[nH]n2)N2C(=O)C(NC(=O)COc3ccccc3)C2SC1 (centres unmarked) [C6H5OCH2--, A = H, 7-Phenoxyacetamido-3-methyl-4-(tetrazol-5-yl)-Δ^3-cephem] | 3.1 µg/mL (≈ 8.32 µM) |
| CC1=C(c2nn[nH]n2)N2C(=O)C(NC(=O)[C@H](N)c3ccc(O)cc3)C2SC1 (stereo partly drawn) [D--4-HOC6H4CH(NH2)--, A = H, 7-[D-α-Amino-α-(p-hydroxyphenyl)acetamido]-3-methyl-4-(tetrazol-5-yl)-Δ^3-cephem] | 1.5 µg/mL (≈ 3.87 µM) |
| CC1=C(c2nn[nH]n2)N2C(=O)C(NC(=O)[C@H](O)c3ccccc3)C2SC1 (stereo partly drawn) [D--C6H5CH(OH)--, A = H, 7-(D-α-Hydroxyphenylacetamido)-3-methyl-4-(tetrazol-5-yl)-Δ^3-cephem] | 1.5 µg/mL (≈ 4.03 µM) |
| CC1=C(c2nn[nH]n2)N2C(=O)C(NC(=O)CSc3nnc(C)s3)C2SC1 (centres unmarked) [R1 not printed, A = H] | 0.78 µg/mL (≈ 1.9 µM) |
| CC1=C(c2nn[nH]n2)N2C(=O)C(NC(=O)Cc3cccs3)C2SC1 (centres unmarked) [R1 not printed, A = H] | 0.4 µg/mL (≈ 1.1 µM) |
| CC(=O)OCC1=C(c2nn[nH]n2)N2C(=O)C(NC(=O)Cc3cccs3)C2SC1 (centres unmarked) [R1 not printed, A = OCOCH3] | 1.6 µg/mL (≈ 3.81 µM) |
